Experimental data as given in patent US10670605B2, “Cysteine reactive probes and uses thereof” (The Scripps Research Institute, priority 2015, dated 2020).

Key:
Experiment in all cases: Competitive isoTOP-ABPP in situ (fragment-treated cells)
Type in all cases: cell-based
[1] = biological target: T1, cysteines in MDA-MB-231 and Ramos cells (Homo sapiens, UniProt O14879); conditions: for isoTOP-ABPP ratio O14879_C343: 200 μM, insitu, 231
T1 sequence (O14879 1-490): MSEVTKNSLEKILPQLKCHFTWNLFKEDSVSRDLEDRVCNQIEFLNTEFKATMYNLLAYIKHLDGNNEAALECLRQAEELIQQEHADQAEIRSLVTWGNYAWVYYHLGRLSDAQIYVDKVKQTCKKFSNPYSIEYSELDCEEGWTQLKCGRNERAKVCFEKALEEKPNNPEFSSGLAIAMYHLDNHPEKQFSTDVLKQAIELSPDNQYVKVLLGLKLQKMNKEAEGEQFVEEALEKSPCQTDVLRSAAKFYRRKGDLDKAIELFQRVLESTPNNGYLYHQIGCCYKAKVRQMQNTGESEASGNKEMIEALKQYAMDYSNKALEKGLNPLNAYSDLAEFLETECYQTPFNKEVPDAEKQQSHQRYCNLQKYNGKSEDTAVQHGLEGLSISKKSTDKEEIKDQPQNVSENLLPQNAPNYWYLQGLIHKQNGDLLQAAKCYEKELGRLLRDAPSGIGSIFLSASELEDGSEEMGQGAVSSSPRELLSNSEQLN

[2] = biological target: T2, cysteines in MDA-MB-231 and Ramos cells (Homo sapiens, UniProt P25205); conditions: for isoTOP-ABPP ratio P25205_C119: 200 μM, insitu
T2 sequence (P25205 1-808): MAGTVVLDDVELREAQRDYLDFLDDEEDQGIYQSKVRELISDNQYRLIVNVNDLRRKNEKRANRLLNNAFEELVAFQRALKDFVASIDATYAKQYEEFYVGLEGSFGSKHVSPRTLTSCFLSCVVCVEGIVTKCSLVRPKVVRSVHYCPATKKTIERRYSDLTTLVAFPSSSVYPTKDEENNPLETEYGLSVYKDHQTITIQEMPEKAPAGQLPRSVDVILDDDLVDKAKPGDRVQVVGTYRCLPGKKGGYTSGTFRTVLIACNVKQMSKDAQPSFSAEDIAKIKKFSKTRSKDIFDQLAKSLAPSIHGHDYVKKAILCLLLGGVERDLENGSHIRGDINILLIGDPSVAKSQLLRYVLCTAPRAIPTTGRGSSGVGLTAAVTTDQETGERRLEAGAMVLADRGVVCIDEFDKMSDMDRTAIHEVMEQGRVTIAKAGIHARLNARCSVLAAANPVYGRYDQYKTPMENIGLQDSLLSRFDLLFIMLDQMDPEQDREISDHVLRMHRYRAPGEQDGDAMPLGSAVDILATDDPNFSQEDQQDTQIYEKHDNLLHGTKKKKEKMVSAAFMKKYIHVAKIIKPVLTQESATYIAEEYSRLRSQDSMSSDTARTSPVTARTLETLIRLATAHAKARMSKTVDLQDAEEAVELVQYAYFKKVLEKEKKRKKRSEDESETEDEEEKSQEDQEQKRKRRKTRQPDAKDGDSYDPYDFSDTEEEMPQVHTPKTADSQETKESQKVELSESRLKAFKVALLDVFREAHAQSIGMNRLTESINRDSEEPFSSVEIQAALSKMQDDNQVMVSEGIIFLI

[3] = biological target: cysteines in MDA-MB-231 and Ramos cells (Homo sapiens, UniProt Q14997); conditions: for isoTOP-ABPP ratio Q14997_C1840: 200 μM, insitu
[4] = biological target: T3, cysteines in MDA-MB-231 and Ramos cells (Homo sapiens, UniProt P22307)
T3 sequence (P22307 1-547): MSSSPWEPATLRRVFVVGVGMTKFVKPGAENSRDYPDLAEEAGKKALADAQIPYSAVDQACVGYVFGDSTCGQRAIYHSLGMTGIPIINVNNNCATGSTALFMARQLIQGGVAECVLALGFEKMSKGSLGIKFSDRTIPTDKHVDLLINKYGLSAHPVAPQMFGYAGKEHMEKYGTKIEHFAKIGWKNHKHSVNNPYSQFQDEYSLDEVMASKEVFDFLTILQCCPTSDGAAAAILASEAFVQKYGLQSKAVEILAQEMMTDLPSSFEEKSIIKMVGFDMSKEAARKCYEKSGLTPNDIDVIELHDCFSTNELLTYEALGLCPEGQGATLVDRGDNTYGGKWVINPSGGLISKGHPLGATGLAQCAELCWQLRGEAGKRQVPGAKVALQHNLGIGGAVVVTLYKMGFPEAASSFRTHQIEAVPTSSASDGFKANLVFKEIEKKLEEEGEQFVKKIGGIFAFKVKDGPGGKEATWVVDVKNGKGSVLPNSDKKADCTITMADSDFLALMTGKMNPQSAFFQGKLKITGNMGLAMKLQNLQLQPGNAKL

[5] = biological target: cysteines in MDA-MB-231 and Ramos cells (Homo sapiens, UniProt P12268); conditions: for isoTOP-ABPP ratio P12268_C140 / isoTOP-ABPP ratio P12268_C331: 200 μM, insitu
[6] = biological target: cysteines in MDA-MB-231 and Ramos cells (Homo sapiens, UniProt Q9BXW7); conditions: for isoTOP-ABPP ratio Q9BXW7_C392: 200 μM, insitu, 231
[7] = biological target: T4, cysteines in MDA-MB-231 and Ramos cells (Homo sapiens, UniProt Q9Y277); conditions: for isoTOP-ABPP ratio Q9Y277_C65: 200 μM, insitu
T4 sequence (Q9Y277 1-283): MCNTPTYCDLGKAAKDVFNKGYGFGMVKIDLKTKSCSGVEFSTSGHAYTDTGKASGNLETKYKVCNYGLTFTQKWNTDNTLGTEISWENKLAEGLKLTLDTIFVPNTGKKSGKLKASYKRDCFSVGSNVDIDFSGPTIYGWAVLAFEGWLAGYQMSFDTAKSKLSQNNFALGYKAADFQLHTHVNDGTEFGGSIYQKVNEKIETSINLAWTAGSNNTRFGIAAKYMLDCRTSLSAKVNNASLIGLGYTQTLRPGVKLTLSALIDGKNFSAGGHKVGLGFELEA

[8] = biological target: cysteines in MDA-MB-231 and Ramos cells (Homo sapiens, UniProt P38606); conditions: for isoTOP-ABPP ratio P38606_C138: 200 μM, insitu, 231
Sequence of cysteines in MDA-MB-231 and Ramos cells (Homo sapiens, UniProt P38606) (P38606 whole entry): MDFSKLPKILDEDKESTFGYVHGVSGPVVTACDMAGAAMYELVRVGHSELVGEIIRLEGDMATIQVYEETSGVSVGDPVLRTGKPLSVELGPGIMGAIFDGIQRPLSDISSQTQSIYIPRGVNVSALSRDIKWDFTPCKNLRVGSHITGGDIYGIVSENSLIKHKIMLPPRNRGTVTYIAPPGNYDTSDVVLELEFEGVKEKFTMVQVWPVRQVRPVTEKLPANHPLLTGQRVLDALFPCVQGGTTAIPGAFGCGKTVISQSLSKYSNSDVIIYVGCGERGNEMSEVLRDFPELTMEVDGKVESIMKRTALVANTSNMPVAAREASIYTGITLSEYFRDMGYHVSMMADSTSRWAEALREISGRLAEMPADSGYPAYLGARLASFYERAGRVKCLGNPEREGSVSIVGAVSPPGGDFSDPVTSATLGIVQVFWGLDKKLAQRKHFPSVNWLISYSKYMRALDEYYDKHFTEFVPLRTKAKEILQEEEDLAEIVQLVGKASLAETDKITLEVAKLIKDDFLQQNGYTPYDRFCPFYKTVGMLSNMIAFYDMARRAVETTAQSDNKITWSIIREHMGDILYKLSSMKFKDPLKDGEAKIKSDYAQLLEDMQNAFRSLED

Sequence of cysteines in MDA-MB-231 and Ramos cells (Homo sapiens, UniProt Q9BXW7) (Q9BXW7 24-423): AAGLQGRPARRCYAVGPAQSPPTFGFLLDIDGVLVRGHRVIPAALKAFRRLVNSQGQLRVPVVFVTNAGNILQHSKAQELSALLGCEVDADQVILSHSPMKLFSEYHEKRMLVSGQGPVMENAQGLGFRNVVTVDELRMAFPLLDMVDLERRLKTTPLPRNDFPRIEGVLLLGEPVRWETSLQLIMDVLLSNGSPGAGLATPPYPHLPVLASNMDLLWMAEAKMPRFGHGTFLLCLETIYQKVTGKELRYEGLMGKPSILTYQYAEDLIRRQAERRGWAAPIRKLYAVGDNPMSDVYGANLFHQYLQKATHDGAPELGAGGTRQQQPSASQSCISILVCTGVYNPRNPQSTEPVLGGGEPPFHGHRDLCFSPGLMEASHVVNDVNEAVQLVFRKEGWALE
Sequence of cysteines in MDA-MB-231 and Ramos cells (Homo sapiens, UniProt Q14997) (Q14997 whole entry): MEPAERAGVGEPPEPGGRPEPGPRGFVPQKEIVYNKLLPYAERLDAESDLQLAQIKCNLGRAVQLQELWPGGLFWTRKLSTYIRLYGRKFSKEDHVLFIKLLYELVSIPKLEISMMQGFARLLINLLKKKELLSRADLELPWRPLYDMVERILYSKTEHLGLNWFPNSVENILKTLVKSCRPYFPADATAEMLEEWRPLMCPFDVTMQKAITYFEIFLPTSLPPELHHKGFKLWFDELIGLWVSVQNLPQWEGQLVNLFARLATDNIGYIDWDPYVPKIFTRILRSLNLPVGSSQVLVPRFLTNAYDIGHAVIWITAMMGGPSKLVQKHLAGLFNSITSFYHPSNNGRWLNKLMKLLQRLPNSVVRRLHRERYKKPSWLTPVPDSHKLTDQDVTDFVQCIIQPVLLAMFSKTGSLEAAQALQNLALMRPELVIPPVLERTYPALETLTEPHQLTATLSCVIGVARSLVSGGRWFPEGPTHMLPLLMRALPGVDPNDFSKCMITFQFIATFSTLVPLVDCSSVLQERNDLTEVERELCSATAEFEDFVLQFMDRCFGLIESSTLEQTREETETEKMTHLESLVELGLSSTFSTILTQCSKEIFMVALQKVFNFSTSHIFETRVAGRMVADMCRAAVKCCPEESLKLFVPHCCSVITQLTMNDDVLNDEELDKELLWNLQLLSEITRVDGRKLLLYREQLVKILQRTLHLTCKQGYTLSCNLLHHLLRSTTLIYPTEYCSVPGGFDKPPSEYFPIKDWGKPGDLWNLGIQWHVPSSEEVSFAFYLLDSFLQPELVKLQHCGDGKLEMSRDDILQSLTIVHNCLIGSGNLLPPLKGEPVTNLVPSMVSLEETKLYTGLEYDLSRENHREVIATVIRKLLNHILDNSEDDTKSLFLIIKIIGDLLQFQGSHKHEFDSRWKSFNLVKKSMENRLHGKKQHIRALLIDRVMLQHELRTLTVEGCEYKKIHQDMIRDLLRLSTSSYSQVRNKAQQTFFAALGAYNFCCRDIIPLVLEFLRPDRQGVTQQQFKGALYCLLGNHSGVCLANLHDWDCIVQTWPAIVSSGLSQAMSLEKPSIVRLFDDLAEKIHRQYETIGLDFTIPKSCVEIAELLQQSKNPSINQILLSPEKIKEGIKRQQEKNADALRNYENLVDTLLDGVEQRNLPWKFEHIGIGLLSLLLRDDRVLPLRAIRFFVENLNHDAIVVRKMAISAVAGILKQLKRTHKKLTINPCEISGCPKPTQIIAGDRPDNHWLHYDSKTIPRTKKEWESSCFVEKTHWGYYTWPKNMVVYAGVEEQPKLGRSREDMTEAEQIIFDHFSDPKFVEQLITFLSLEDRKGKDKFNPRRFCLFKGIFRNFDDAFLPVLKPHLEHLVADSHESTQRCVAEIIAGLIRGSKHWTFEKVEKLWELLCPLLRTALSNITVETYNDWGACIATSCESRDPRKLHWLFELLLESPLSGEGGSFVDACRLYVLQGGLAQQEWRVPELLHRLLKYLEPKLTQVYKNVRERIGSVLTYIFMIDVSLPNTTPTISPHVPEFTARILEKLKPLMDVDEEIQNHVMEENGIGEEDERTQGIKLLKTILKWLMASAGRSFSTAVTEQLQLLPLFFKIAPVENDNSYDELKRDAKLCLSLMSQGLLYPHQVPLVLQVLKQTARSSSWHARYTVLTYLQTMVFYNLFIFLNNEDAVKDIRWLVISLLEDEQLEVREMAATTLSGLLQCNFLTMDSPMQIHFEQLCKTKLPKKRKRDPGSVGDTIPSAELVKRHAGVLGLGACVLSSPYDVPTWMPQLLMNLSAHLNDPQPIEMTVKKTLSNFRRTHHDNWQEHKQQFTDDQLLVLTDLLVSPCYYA

isoTOP-ABPP ratio O14879_C343 [1] | isoTOP-ABPP ratio P25205_C119 [2]; 231 | isoTOP-ABPP ratio Q14997_C1840 [3]; 231 | isoTOP-ABPP ratio P22307_C71 ([4]; 200 μM, insitu, 231) | isoTOP-ABPP ratio P12268_C140 [5]; 231 | isoTOP-ABPP ratio Q9BXW7_C392 [6] | isoTOP-ABPP ratio Q9Y277_C65 [7]; 231 | isoTOP-ABPP ratio P38606_C138 [8] | isoTOP-ABPP ratio P12268_C331 [5]; 231 | Structure (SMILES) | other results
4.9 | 2.3 | 20.0 | 8.3 | 0.7 | 20.0 | 3.3 | 20.0 |  | O=C(CCl)N1CCN(S(=O)(=O)c2ccccc2F)CC1 [compound 10] | isoTOP-ABPP ratio P12268_C140 ([5]; ramos): 0.9; isoTOP-ABPP ratio P12268_C331 ([5]; ramos): 2.1; isoTOP-ABPP ratio Q9Y277_C65 ([7]; ramos): 2.5
1.0 | 1.1 | 0.9 | 4.9 | 0.7 | 2.0 | 1.0 | 20.0 |  | O=C(CCl)NCCc1c[nH]c2ccccc12 [compound 13] | isoTOP-ABPP ratio P25205_C119 ([2]; ramos): 1.3; isoTOP-ABPP ratio Q14997_C1840 ([3]; ramos): 1.6; isoTOP-ABPP ratio P12268_C331 ([5]; ramos): 1.4
0.3 | 0.9 | 0.9 | 1.2 | 0.7 | 1.0 | 1.4 | 0.8 | 0.8 | Cc1ccc(C=C(C#N)C(=O)NCCN2CCOCC2)cc1 [compound 41] | isoTOP-ABPP ratio P22307_C307 ([4]; 200 μM, insitu, 231): 1.1

More lines, now with the values behind:

Structure (SMILES) | isoTOP-ABPP ratio O14879_C343 [1] | isoTOP-ABPP ratio P25205_C119 [2]; 231 | isoTOP-ABPP ratio Q14997_C1840 [3]; 231 | isoTOP-ABPP ratio P22307_C71 ([4]; 200 μM, insitu, 231) | isoTOP-ABPP ratio P12268_C140 [5]; 231 | isoTOP-ABPP ratio Q9BXW7_C392 [6] | isoTOP-ABPP ratio Q9Y277_C65 [7]; 231 | isoTOP-ABPP ratio P38606_C138 [8] | isoTOP-ABPP ratio P12268_C331 [5]; 231 | other results
COc1ccc(C2CC(c3cccs3)=NN2C(=O)CCl)cc1 (stereo not drawn) [compound 4] |  |  |  |  |  |  |  |  |  | isoTOP-ABPP reactivity O14879_C343 IFIT3 ([1]; 100 μM in situ 231): 6.6; isoTOP-ABPP reactivity P25205_C119 MCM3 ([2]; 100 μM in situ 231): 4.3; isoTOP-ABPP reactivity Q14997_C1840 PSME4 ([3]; 100 μM in situ 231): 20.0; isoTOP-ABPP reactivity P22307_C71 SCP2 ([4]; 100 μM in situ 231): 2.7; isoTOP-ABPP reactivity P22307_C94 SCP2 ([4]; 100 μM in situ 231): 20.0; isoTOP-ABPP reactivity P22307_C307 SCP2 ([4]; 100 μM in situ 231): 20.0; isoTOP-ABPP reactivity P12268_C140 IMPDH2 ([5]; 100 μM in situ 231): 1.0; isoTOP-ABPP reactivity P12268_C331 IMPDH2 ([5]; 100 μM in situ 231): 4.6; isoTOP-ABPP reactivity Q9BXW7_C392 CECR5 ([6]; 100 μM in situ 231): 2.2; isoTOP-ABPP reactivity Q9Y277_C65 VDAC3 ([7]; 100 μM in situ 231): 4.7; isoTOP-ABPP reactivity P38606_C138 ATP6V1A ([8]; 100 μM in situ 231): 20.0
O=C(CCl)NC(=O)NC12CC3CC(CC(C3)C1)C2 [compound 12] | 3.5 | 1.0 | 20.0 | 3.7 | 1.2 | 5.1 | 3.9 | 20.0 |  | isoTOP-ABPP ratio, cysteine P22307_C94 ([4]; 200 μM, insitu, 231): 20.0; isoTOP-ABPP ratio, cysteine P22307_C307 ([4]; 200 μM, insitu, 231): 20.0
O=C(CCl)NC12CC3CC(CC(C3)C1)C2 [compound 21] | 0.8 | 1.1 | 1.0 | 8.3 | 0.6 | 1.6 | 2.9 | 20.0 | 0.8 | isoTOP-ABPP ratio, cysteine P22307_C307 ([4]; 200 μM, insitu, 231): 20.0
CC(C)CCOCCNC(=O)CCl [compound 27] | 0.4 | 1.0 | 20.0 | 20.0 | 0.5 | 1.3 | 1.6 | 4.6 | 0.7 | 
